Data published in patent US11498903B2 (BRISTOL-MYERS SQUIBB COMPANY, priority 2017, dated 2022).
Read-outs that look alike come from different tables or passages of the source.

Target: T1, human APJ receptor (Homo sapiens, UniProt P35414)
T1 construct: expressed in transfected cells
T1 sequence (P35414 1-380): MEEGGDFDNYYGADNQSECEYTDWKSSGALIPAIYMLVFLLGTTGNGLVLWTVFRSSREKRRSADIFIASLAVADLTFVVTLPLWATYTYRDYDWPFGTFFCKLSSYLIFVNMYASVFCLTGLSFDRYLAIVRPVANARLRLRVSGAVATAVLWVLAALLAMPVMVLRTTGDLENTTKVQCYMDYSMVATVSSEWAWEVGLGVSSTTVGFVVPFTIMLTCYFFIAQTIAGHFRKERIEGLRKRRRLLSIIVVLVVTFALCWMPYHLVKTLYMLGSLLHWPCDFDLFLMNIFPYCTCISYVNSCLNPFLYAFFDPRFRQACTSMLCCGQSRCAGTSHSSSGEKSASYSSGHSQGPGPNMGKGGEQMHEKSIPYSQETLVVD
Assay: Intracellular cAMP accumulation assay (APJ hcAMP, HTRF)
Assay type: cell-based
Conditions: HEK293 cells stably expressing human APJ receptor
Summary of the method: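 HEK293 cells stably expressing human APJ, 5,000/well, incubated 30 min at room temperature with compound plus […] and 2 μM forskolin. cAMP read by HTRF against a cAMP standard curve; EC50 from variable-slope sigmoidal fit, Ymax as % of (Pyr1)apelin-13 inhibition.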

[1] = Table 1, inhibition of forskolin-mediated cAMP production, read-out: APJ hcAMP EC50
[2] = Table 2, read-out: APJ cAMP Human EC50

Compound | EC50 [1] [nM] | EC50 [2] [nM]
CCC[C@@H](NC(=O)c1cc(C(=O)O)c(-c2cc(Cl)ccc2-c2nc3ccccc3[nH]2)cc1C)c1ccccc1 [Example 11, (R)-2′-(1H-benzo[d]imidazol-2-yl)-5′-chloro-5-methyl-4-((1-phenylbutyl)carbamoyl)-[1,1′-biphenyl]-2-carboxylic acid] | < 10 | < 10
COC[C@@H](NC(=O)c1ccc(-c2cc(Cl)ccc2-c2nc3cc(OC)ccc3[nH]2)c(C(=O)O)c1)c1ccccc1 [Example 12, 5′-chloro-4-{[(1S)-2-methoxy-1-phenylethyl]carbamoyl}-2′-(5-methoxy-1H-1,3-benzodiazol-2-yl)-[1,1′ biphenyl]-2-carboxylic acid] | < 10 | < 10
CCC[C@@H](NC(=O)c1ccc(-c2cc(Cl)ccc2-c2nc3cc(Br)ccc3[nH]2)c(C(=O)O)c1)c1ccccc1 [Example 13, 2′-(5-bromo-1H-1,3-benzodiazol-2-yl)-5′-chloro-4-{[(1R)-1-phenylbutyl]carbamoyl}-[1,1′-biphenyl]-2-carboxylic acid] | < 10 | < 10
CCC[C@@H](NC(=O)c1ccc(-c2cc(Cl)ccc2-c2nc3cc(C)ccc3[nH]2)c(C(=O)O)c1)c1ccccc1 [Example 14, 5′-chloro-2′-(5-methyl-1H-1,3-benzodiazol-2-yl)-4-{[(1R)-1-phenylbutyl]carbamoyl}-[1,1′-biphenyl]-2-carboxylic acid] | < 10 | < 10
CCC[C@@H](NC(=O)c1ccc(-c2cc(Cl)ccc2-c2nc3cc(C4CC4)ccc3[nH]2)c(C(=O)O)c1)c1ccccc1 [Example 15, 5′-chloro-2′-(5-cyclopropyl-1H-1,3-benzodiazol-2-yl)-4-{[(1R)-1-phenylbutyl]carbamoyl}-[1,1′-biphenyl]-2-carboxylic acid] | < 10 | < 10
CCC[C@@H](NC(=O)c1ccc(-c2cc(Cl)ccc2-c2nc3cc(CC(F)(F)F)ccc3[nH]2)c(C(=O)O)c1)c1ccccc1 [Example 16, 5′-chloro-4-{[(1R)-1-phenylbutyl]carbamoyl}-2′-[5-(2,2,2-trifluoroethyl)-1H-1,3-benzodiazol-2-yl]-[1,1′-biphenyl]-2-carboxylic acid] | < 10 | < 10
CCC[C@@H](NC(=O)c1ccc(-c2cc(Cl)ccc2-c2nc3c(F)cccc3[nH]2)c(C(=O)O)c1)c1ccccc1 [Example 17, 5′-chloro-2′-(4-fluoro-1H-1,3-benzodiazol-2-yl)-4-{[(1R)-1-phenylbutyl]carbamoyl}-[1,1′-biphenyl]-2-carboxylic acid] | < 10 | < 10
CCC[C@@H](NC(=O)c1ccc(-c2cc(Cl)ccc2-c2nc3cc(C(F)(F)F)ccc3[nH]2)c(C(=O)O)c1)c1ccccc1 [Example 18, 5′-chloro-4-{[(1R)-1-phenylbutyl]carbamoyl}-2′-[5-(trifluoromethyl)-1H-1,3-benzodiazol-2-yl]-[1,1′-biphenyl]-2-carboxylic acid] | < 10 | < 10
CCC[C@@H](NC(=O)c1ccc(-c2cc(Cl)ccc2-c2nc3cc(C(C)(C)C)ccc3[nH]2)c(C(=O)O)c1)c1ccccc1 [Example 19, 2′-(5-tert-butyl-1H-1,3-benzodiazol-2-yl)-5′-chloro-4-{[(1R)-1-phenylbutyl]carbamoyl}-[1,1′-biphenyl]-2-carboxylic acid] | < 10 | < 10
CCC[C@@H](NC(=O)c1ccc(-c2cc(Cl)ccc2-c2nc3c(O)cccc3[nH]2)c(C(=O)O)c1)c1ccccc1 [Example 20, 5′-chloro-2′-(4-hydroxy-1H-1,3-benzodiazol-2-yl)-4-{[(1R)-1-phenylbutyl]carbamoyl}-[1,1′-biphenyl]-2-carboxylic acid] | < 10 | < 10
CCC[C@@H](NC(=O)c1ccc(-c2cc(Cl)ccc2-c2nc3cc(C(=O)OC)ccc3[nH]2)c(C(=O)O)c1)c1ccccc1 [Example 21, 5′-chloro-2′-[5-(methoxycarbonyl)-1H-1,3-benzodiazol-2-yl]-4-{[(1R)-1-phenylbutyl]carbamoyl}-[1,1′-biphenyl]-2-carboxylic acid] | < 10 | < 10
CCC[C@@H](NC(=O)c1ccc(-c2cc(Cl)ccc2-c2nc3cc(OC(F)(F)F)ccc3[nH]2)c(C(=O)O)c1)c1ccccc1 [Example 22, 5′-chloro-4-{[(1R)-1-phenylbutyl]carbamoyl}-2′-[5-(trifluoromethoxy)-1H-1,3-benzodiazol-2-yl]-[1,1′-biphenyl]-2-carboxylic acid] | 10 to 100 | 10 to 100
CCC[C@@H](NC(=O)c1ccc(-c2cc(Cl)ccc2-c2nc3ncc(C)cc3[nH]2)c(C(=O)O)c1)c1ccccc1 [Example 23, 5′-chloro-2′-{6-methyl-1H-imidazo[4,5-b]pyridin-2-yl}-4-{[(1R)-1-phenylbutyl]carbamoyl}-[1,1′-biphenyl]-2-carboxylic acid] | 10 to 100 | 10 to 100

Second part, the compound after the results:

EC50 [1] [nM] | EC50 [2] [nM] | Compound
10 to 100 | 10 to 100 | CCC[C@@H](NC(=O)c1ccc(-c2cc(Cl)ccc2-c2nc3ccncc3[nH]2)c(C(=O)O)c1)c1ccccc1 [Example 24, 5′-chloro-2′-{1H-imidazo[4,5-c]pyridin-2-yl}-4-{[(1R)-1-phenylbutyl]carbamoyl}-[1,1′-biphenyl]-2-carboxylic acid]
10 to 100 | 10 to 100 | CCC[C@@H](NC(=O)c1ccc(-c2cc(Cl)ccc2-c2nc3c(ccc4ccccc43)[nH]2)c(C(=O)O)c1)c1ccccc1 [Example 25, 5′-chloro-2′-{3H-naphtho[1,2-d]imidazol-2-yl}-4-{[(1R)-1-phenylbutyl]carbamoyl}-[1,1′-biphenyl]-2-carboxylic acid]
10 to 100 | 10 to 100 | CCC[C@@H](NC(=O)c1ccc(-c2cc(Cl)ccc2-c2nc3cc4c(cc3[nH]2)OCO4)c(C(=O)O)c1)c1ccccc1 [Example 26, 5′-chloro-2′-{4,6-dioxa-10,12-diazatricyclo[7.3.0.0^3,^7]dodeca-1(9),2,7,10-tetraen-11-yl}-4-{[(1R)-1-phenylbutyl]carbamoyl}-[1,1′-biphenyl]-2-carboxylic acid]
10 to 100 | 10 to 100 | CCC[C@@H](NC(=O)c1ccc(-c2cc(Cl)ccc2-c2nc3cc4ccccc4cc3[nH]2)c(C(=O)O)c1)c1ccccc1 [Example 27, 5′-chloro-2′-{1H-naphtho[2,3-d]imidazol-2-yl}-4-{[(1R)-1-phenylbutyl]carbamoyl}-[1,1′-biphenyl]-2-carboxylic acid]
10 to 100 | 10 to 100 | CCC[C@@H](NC(=O)c1ccc(-c2cc(Cl)ccc2-c2nc3cc(C#N)ccc3[nH]2)c(C(=O)O)c1)c1ccccc1 [Example 28, 5′-chloro-2′-(5-cyano-1H-1,3-benzodiazol-2-yl)-4-{[(1R)-1-phenylbutyl]carbamoyl}-[1,1′-biphenyl]-2-carboxylic acid]
10 to 100 | 10 to 100 | CCC[C@@H](NC(=O)c1ccc(-c2cc(Cl)ccc2-c2nc3ncncc3[nH]2)c(C(=O)O)c1)c1ccccc1 [Example 29, 5′-chloro-4-{[(1R)-1-phenylbutyl]carbamoyl}-2′-(7H-purin-8-yl)-[1,1′-biphenyl]-2-carboxylic acid]
10 to 100 | 10 to 100 | CCC[C@@H](NC(=O)c1ccc(-c2cc(Cl)ccc2-c2nc3nc(C)ccc3[nH]2)c(C(=O)O)c1)c1ccccc1 [Example 30, 5′-chloro-2′-{5-methyl-1H-imidazo[4,5-b]pyridin-2-yl}-4-{[(1R)-1-phenylbutyl]carbamoyl}-[1,1′-biphenyl]-2-carboxylic acid]
10 to 100 | 10 to 100 | CCC[C@@H](NC(=O)c1ccc(-c2cc(Cl)ccc2-c2nc3ncccc3[nH]2)c(C(=O)O)c1)c1ccccc1 [Example 31, 5′-chloro-2′-{1H-imidazo[4,5-b]pyridin-2-yl}-4-{[(1R)-1-phenylbutyl]carbamoyl}-[1,1′-biphenyl]-2-carboxylic acid]
< 10 | < 10 | CCC[C@@H](NC(=O)c1ccc(-c2cc(C)ccc2-c2nc3ccccc3[nH]2)c(C(=O)O)c1)c1ccccc1 [Example 32, 2′-(1H-1,3-benzodiazol-2-yl)-5′-methyl-4-{[(1R)-1-phenylbutyl]carbamoyl}-[1,1′-biphenyl]-2-carboxylic acid]
< 10 | < 10 | CCC[C@@H](NC(=O)c1ccc(-c2cc(F)ccc2-c2nc3ccccc3[nH]2)c(C(=O)O)c1)c1ccccc1 [Example 33, 2′-(1H-1,3-benzodiazol-2-yl)-5′-fluoro-4-{[(1R)-1-phenylbutyl]carbamoyl}-[1,1′-biphenyl]-2-carboxylic acid]
< 10 | < 10 | CCC[C@@H](NC(=O)c1ccc(-c2ccc(F)cc2-c2nc3ccccc3[nH]2)c(C(=O)O)c1)c1ccccc1 [Example 34, 2′-(1H-1,3-benzodiazol-2-yl)-4′-fluoro-4-{[(1R)-1-phenylbutyl]carbamoyl}-[1,1′-biphenyl]-2-carboxylic acid]
< 10 | < 10 | CCC[C@@H](NC(=O)c1ccc(-c2cc(C)ccc2-c2nc3cc(OC)ccc3[nH]2)c(C(=O)O)c1)c1ccccc1 [Example 35, 2′-(5-methoxy-1H-1,3-benzodiazol-2-yl)-5′-methyl-4-{[(1R)-1-phenylbutyl]carbamoyl}-[1,1′-biphenyl]-2-carboxylic acid]
